Read-outs that look alike come from different tables or passages of the source.
Assays:
[1] = system: estrogen receptor preparations from rat uteri; test: Competitive 3H-estradiol binding, rat uterus cytosol; details: for RBA Rat Uterus: Table 2, 3H-estradiol as ligand
[2] = system: estrogen receptor preparations from rat prostates; test: Competitive 3H-estradiol binding, rat prostate cytosol; details: for RBA Rat Prostate: Table 2, 3H-estradiol as ligand; for binding affinity to estrogen receptor of rat prostates compared with rat uteri: qualitative comparison prostate ER versus uterus ER
hERβ [3] = test: Relative binding affinity to hERβ (Kuiper et al.); design: species or system human; details: quotient of RBA hERβ / hERα
Source text: In this case, it is assumed that ERβ predominates in the rat prostates over ERα, and ERα predominates in rat uteri over ERβ.

hERβ [4] = details: cited from earlier work
[5] = system: hypophysectomized juvenile rats; test: Ovary study, ovary weight in hypophysectomized juvenile rats; assay type: in vivo, rat; details: 0.5 mg/animal/day s.c. over 4 days, compared with estradiol 0.1 mg/animal/day
Procedure: (§1) The substances were tested in vivo on hypophysectomized juvenile rats. In a modification of this operative method, a GnRH antagonist is administered to the animals. It is examined whether the substance stimulates follicular proliferation (maturation) in the ovary. The ovary weight is the measurement parameter.
(§2) In each case, five animals (body weight 40-50 g) are assigned randomly to the treatment groups. The animals are fed as much as they want with a standard diet (altromin) in Makrolon cages in air-conditioned rooms with a lighting program (10 hours of darkness, 14 hours of light) and are given acidified tap water to drink.
(§3) In both cases, the animals are sacrificed 24 hours after the last administration, and the ovary weight is determined.

adult female rats = test: Dissociation of action ovary/uterus and pituitary gland: ovulation and uterus weight; assay type: in vivo, rat
Procedure: The studies with respect to the action on uterus growth and ovulation (indirect effect by influencing the secretion of pituitary gland hormones) are performed on adult female rats (body weight of 220-250 g). The substances are subcutaneously administered four times on four consecutive days. The first administration is carried out in the metestrus. One day after the last administration, the autopsy is carried out. The number of ovocytes in the tube (effect on the ovulation) as well as the uterus weight are determined.

[6] = system: GnRH antagonist-treated animals; test: Ovary study, ovary weight in GnRH antagonist (Cetrorelix)-treated juvenile rats; assay type: in vivo, rat
Procedure: as §1, §2, §3

[7] = Table 1, 3H-estradiol as ligand, estradiol = 100

Compound | RBA Rat Uterus [1] | RBA Rat Prostate [2] | binding affinity to estrogen receptor of rat prostates compared with rat uteri [2] | also measured
9α-(2′,2′-Difluorovinyl)-18a-homo-estra-1,3,5(10)-triene-3,16α-diol [Compound 5] | 0.2 | 6 | higher binding affinity to the estrogen receptor of rat prostates | 
C[C@]12CCC(O)CC1=CC[C@@H]1[C@@H]2CC[C@]2(C)C(O)CC[C@@H]12 (some centres unmarked) [5-Androstene-diol, reference compound] |  |  |  | ERβ/ERα (hERβ [3]): 3; Rat uterus ER(RBA) [1, 7]: 0.1; hERβ RBA* (hERβ [4]): 17; Rat prost. ER(RBA) [2, 7]: 5; prost. ER/uterus ER ([2]; ratio of RBA rat prostate ER / rat uterus ER): 50
C=C[C@]12CC[C@]3(C)C[C@H](O)C[C@H]3[C@@H]1CCc1cc(O)ccc12 [Compound 1, 9α-Vinylestra-1,3,5(10)-triene-3,16α-diol] | 1.2 | 100 | higher binding affinity to the estrogen receptor of rat prostates | increase in ovary weight [5]: comparable increase in ovary weight; effect on ovulation and uterus weight (adult female rats; s.c. on four days, up to a dose of 0.4 mg/kg of body weight): does not exert any effect
C=C[C@]12CC[C@]3(C)[C@@H](F)[C@H](O)C[C@H]3[C@@H]1CCc1cc(O)ccc12 [Compound 2, 17β-Fluoro-9α-vinyl-estra-1,3,5(10)-triene-3,16α-diol] | 2 | 200 | higher binding affinity to the estrogen receptor of rat prostates | action on ovary weight (FIG. 1) ([6]; GnRH antagonist-treated animals, 0.1 and 0.3 mg/animal/day, compared with estradiol 1 mg/animal/day): same action as the dose of 1 mg/animal/day of estradiol; action on ovary weight, low dosages (FIG. 2) ([6]; combination with Cetrorelix, 0.01, 0.03 mg/animal/day): show an ovary action and can eliminate the antagonistic effect of Cetrorelix
C[C@]12CC[C@]3(C=C(F)F)c4ccc(O)cc4CC[C@H]3[C@@H]1C[C@@H](O)C2 [Compound 4, 9α-(2′,2′-Difluorovinyl)-estra-1,3,5(10)-triene-3,16α-diol] | 0.2 | 4 | higher binding affinity to the estrogen receptor of rat prostates | 
C[C@]12CC[C@@H]3c4ccc(O)cc4CC[C@H]3[C@@H]1CC[C@@H]2O [Estradiol, reference compound] |  |  |  | ED50 of ovulation inhibition and increase in uterus weight (adult female rats; s.c. four times on four consecutive days): 0.004 mg/kg of body weight
C[C@]12CC[C@@H]3c4ccc(O)cc4CC[C@H]3[C@@H]1C[C@@H](O)[C@@H]2O [Estriol] |  |  |  | hERβ RBA* (hERβ [4]; relative binding affinity, estradiol = 100, cited from Kuiper et al.): 21

Reference: patent US7414043B2, “9-α-substituted estratrienes as selectively active estrogens” (priority 2002, dated 2008)
